The values below are quoted from earlier work in PMC9289467, “A Novel Multifunctional 5,6-Dimethoxy-Indanone-Chalcone-Carbamate Hybrids Alleviates Cognitive Decline in Alzheimer’s Disease by Dual Inhibition of Acetylcholinesterase and Inflammation” (Frontiers in Aging Neuroscience, 2022).

Data set [1] deals with cerebrospinal fluid (CSF) Aβ. To be noted: chronic treatment, patients with AD; ref Nitsch et al., 2000; cited from earlier work.
A further data set relates to APP processing. The note with it: rat brains; ref Farber et al., 1995; cited from earlier work.
Data set [2] has as its system AChE-induced Aβ fibrillization. The note with it: PAS inhibitors; ref Inestrosa et al., 1996; cited from earlier work.

Consider `CC1OC2(CS1)CN1CCC2CC1` (centres unmarked) [AF102B], for which, in data set [1], the “cerebrospinal fluid (CSF) Aβ levels” value is “markedly lowered”.
For the compound `CNC(=O)Oc1ccc2c(c1)[C@]1(C)CCN(C)[C@@H]1N2C` [physostigmine], the “cerebrospinal fluid (CSF) Aβ levels” value in data set [1] is listed as “did not show a significant effect”. Moreover, the APP processing result in the data set on APP processing is on record as “did not change APP processing”.
Turning to `CC[N+](C)(CC)CCC[n+]1c(-c2ccccc2)c2cc(N)ccc2c2ccc(N)cc21` [Propidium], in data set [2], the “effect of AChE on Aβ fibril aggregation process” value is recorded as “capable of preventing”.
For the compound fasciculin, the “effect of AChE on Aβ fibril aggregation process” value in data set [2] is given as “capable of preventing”.
